Experimental data from US20250090699A1, “FAP TARGETING CYCLIC PEPTIDES AND CONJUGATES THEREOF” (Novartis AG, priority 2023, published 2025).
Where a name gives a salt, the structure may show the parent alone. Read-outs that look alike come from different tables or passages of the source. Starred links: 1 amine or outer side, 2 acyl side, 3 side chain; linkers in the order of their positions; H or OH if unused. Non-standard residues stand in square brackets, D forms with d. Residues, ends and D or L forms follow the SMILES beside them. Groups on a side chain read outwards from the residue. *: point of attachment. F(4OEtNHDOTA-Lu) = lutetium complex of (S)-2,2',2''-(10-(2-((2-(4-(2-amino-2-carboxyethyl)phenoxy)ethyl)amino)-2-oxoethyl)-1,4,7,10-tetraazacyclododecane-1,4,7-triyl)triacetic acid (Phe with 4-O-ethylamino-DOTA-Lu), O=C([O-])CN1CCN(CC(=O)[O-])CCN(CC(=O)NCCOc2ccc(C[C@H](N[*:1])C(=O)[*:2])cc2)CCN(CC(=O)[O-])CC1.[Lu+3]; Nicotinoyl(6-NMe3+) = C[N+](C)(C)c1ccc(C(=O)*)cn1; Phe(4-CH2NH2) = NCc1ccc(C[C@H](N)C(=O)O)cc1; Piperazinyl(4-CH2COOH) = O=C(O)CN1CCN(*)CC1; Nicotinoyl(6-F) = O=C(c1ccc(F)nc1)*; NMeF = CN[C@@H](Cc1ccccc1)C(=O)O; Aoc(2) = CCCCCC[C@H](N)C(=O)O; Ahp(2) = CCCCC[C@H](N)C(=O)O; hSer = N[C@@H](CCO)C(=O)O; AEEA = NCCOCCOCC(=O)O; CO = O=C([*:1])[*:2]; Propyl = CCC*

Assays:
human FAP [1] = molecular target: T1, human FAP (Homo sapiens, UniProt Q12884); test: Surface plasmon resonance (SPR) for peptide affinity, human FAP; type: binding; settings: read-out: h. FAP, SPR, KD
T1 construct: the biotinylated His, Avi tag, human FAP (26-760, FAP-H82Q6); His; Avi tag (biotinylated); purchased AcroBiosystems FAP-H82Q6
T1 sequence (Q12884 26-760): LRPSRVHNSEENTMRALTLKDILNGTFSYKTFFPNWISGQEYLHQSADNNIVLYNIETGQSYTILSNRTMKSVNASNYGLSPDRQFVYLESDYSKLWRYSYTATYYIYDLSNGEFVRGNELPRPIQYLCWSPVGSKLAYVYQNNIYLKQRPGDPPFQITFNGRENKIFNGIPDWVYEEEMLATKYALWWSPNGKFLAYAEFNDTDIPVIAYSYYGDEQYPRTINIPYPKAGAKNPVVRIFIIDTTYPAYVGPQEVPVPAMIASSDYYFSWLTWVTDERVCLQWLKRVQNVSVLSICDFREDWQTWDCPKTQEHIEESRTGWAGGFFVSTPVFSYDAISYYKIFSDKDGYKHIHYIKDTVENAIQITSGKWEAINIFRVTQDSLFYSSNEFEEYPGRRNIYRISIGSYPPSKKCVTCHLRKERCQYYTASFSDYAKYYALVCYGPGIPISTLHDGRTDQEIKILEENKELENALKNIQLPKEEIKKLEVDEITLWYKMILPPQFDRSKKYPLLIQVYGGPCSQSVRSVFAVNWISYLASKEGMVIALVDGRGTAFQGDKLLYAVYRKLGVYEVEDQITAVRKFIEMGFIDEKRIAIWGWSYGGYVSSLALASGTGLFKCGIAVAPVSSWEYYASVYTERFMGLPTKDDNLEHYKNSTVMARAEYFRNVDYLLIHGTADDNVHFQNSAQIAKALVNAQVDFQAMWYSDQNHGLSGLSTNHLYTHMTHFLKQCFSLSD
Protocol: Peptide affinities (KD) were determined by SPR using a Biacore™ 8K device (Cytiva) towards the following proteins: biotinylated His, Avi tag, human FAP (26-760, FAP-H82Q6), biotinylated His, Avi tag, mouse FAP (26-761, FAP-M82Q5), His tag, human DPP4 (34-766, DP4-H82E3), all purchased from AcroBiosystems and His tag, mouse DPP4 (29-760, 954-SE) from R&D Systems. The FAP proteins and their homologous were diluted to a concentration of 2 μg/mL into acetate buffer pH 5.5, then immobilized onto a CM5 sensorchip (Cytiva, BR-1005-30) to reach a response around 2000 R U. The running buffer HBS-EP+pH 7.6 (20× from Teknova CAT. No: H8022) contained 10 mM HEPES pH 7.6, 150 mM NaCl, 3 mM EDTA, 0.05% Tween20 and 2% DMSO. Experiments were carried out at 25° C. using a flow rate of 30 μL/min. Compounds were tested in single cycle kinetic mode at 8 different concentrations. Curve fitting was performed using the Biacore™ 8K evaluation software. The sensorgrams were fitted by applying a 1:1 binding model to calculate kinetic rate constants and equilibrium dissociation constants (KD).
For this assay, the setup had the same conditions (flow rate, running buffer, peptide dilution) as described above for the CM5 method. The oligo CAP reagent obtained in the CAPture Kit (Ref. 28920234) was 1/5 diluted into running buffer and used with a contact time of 300 s at a flow rate of 2 μL/min. The human and mouse FAP constructs described above were used (from AcroBiosystems or produced in house). The FAP proteins were diluted to a concentration of 2 μg/mL into acetate pH 5.5, 0.05% Tween20 and used with a contact time of 600 s at a flow rate of 10 μL/min. The peptides were tested with an association time of 280 s followed by a dissociation time of 3000 s at a flow rate of 30 μL/min. The regeneration was done using the regeneration solution (8 M guanidine-HCl, 1 M NaOH) as obtained with a contact time of 270 s at a flow rate of 10 μL/min. […] The compounds marked with an asterisk were tested against human and mouse DDP4.

mouse FAP [2] = molecular target: T2, mouse FAP (Mus musculus, UniProt P97321); test: Surface plasmon resonance (SPR) for peptide affinity, mouse FAP; type: binding
T2 construct: biotinylated His, Avi tag, mouse FAP (26-761, FAP-M82Q5); His; Avi tag (biotinylated); purchased AcroBiosystems FAP-M82Q5
T2 sequence (P97321 26-761): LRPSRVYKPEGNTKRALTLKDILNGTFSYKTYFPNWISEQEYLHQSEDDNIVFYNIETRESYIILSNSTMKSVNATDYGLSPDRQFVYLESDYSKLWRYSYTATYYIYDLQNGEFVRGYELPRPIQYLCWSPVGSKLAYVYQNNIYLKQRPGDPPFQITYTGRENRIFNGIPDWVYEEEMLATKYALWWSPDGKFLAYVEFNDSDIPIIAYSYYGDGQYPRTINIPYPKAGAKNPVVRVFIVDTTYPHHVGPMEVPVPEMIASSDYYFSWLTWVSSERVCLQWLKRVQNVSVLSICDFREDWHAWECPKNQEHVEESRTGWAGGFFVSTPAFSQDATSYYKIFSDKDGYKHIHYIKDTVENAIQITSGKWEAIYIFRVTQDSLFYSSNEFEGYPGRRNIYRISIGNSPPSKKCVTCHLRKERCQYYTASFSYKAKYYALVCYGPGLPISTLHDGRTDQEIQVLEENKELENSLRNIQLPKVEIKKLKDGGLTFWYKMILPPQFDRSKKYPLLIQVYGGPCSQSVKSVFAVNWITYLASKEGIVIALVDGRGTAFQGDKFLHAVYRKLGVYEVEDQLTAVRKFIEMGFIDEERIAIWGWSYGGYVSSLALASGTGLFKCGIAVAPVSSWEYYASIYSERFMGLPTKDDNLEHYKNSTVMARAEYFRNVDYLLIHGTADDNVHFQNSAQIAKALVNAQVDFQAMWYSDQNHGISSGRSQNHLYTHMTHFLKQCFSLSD
Procedure, shortened: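 Biotinylated His/Avi-tagged FAP ectodomains (human 26-760, mouse 26-761) captured or immobilized on Biacore sensor chips; peptides run at 25 °C in HBS-EP+ pH 7.6 with 2% DMSO, single-cycle kinetics, 8 concentrations. KD from 1:1 binding-model fit of sensorgrams.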

human FAP [3] = molecular target: T1, human FAP; test: Enzymatic FAP competition assay (Z-Gly-Pro-AMC fluorescence), human FAP; type: biochemical; settings: read-out: h. FAP, Enz., IC50
Procedure, shortened: (§1)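 Biotinylated His/Avi-tagged FAP ectodomain (human 26-760, mouse 26-761) at 0.01 nM, preincubated 24 h with peptides (14 concentrations, up to 1 μM) in pH 7.5 phosphate, 150 mM NaCl, 0.05% Tween20, 1% DMSO. Then 50 μM Z-Gly-Pro-AMC, 4 h at 22-24° C; AMC fluorescence (380/460 nm) gave IC50 from duplicate points.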

mouse FAP [4] = molecular target: T2, mouse FAP; test: Enzymatic FAP competition assay (Z-Gly-Pro-AMC fluorescence), mouse FAP; type: biochemical; settings: read-out: m. FAP, Enz., IC50
Procedure, shortened: as §1

Kd (human FAP [1]) [nM] | Kd (mouse FAP [2]) [nM] | IC50 (human FAP [3]) [nM] | IC50 (mouse FAP [4]) [nM] | Kd (mouse FAP [2]; values marked ** : including further experimental repetition) [nM] | Molecule
0.118 | 0.36 | 0.104 | 0.737 |  | CCCCC[C@@H]1NC(=O)[C@H](Cc2ccc(O)cc2)NC(=O)[C@H](Cc2ccccc2)N(C)C(=O)CNC(=O)CNC(=O)[C@H]2CCCN2C(=O)[C@H](CC(=O)O)NC(=O)[C@H](Cc2ccc(O)cc2)NC(=O)CNC(=O)[C@H](Cc2c[nH]c3ccccc23)NC1=O [Example A52, Gly-Gly-NMePhe-Tyr-Ahp-Trp-Gly-Tyr-Asp-D-Pro] (cyclo([Ahp(2)]WGYD[dP]GG[NMeF]Y))
< 0.013 | < 0.014 | 0.006 | 0.016 |  | CCCCCC[C@@H]1NC(=O)[C@H](Cc2ccc(CNC(=O)COCCOCCNC(=O)c3ccc([N+](C)(C)C)nc3)cc2)NC(=O)[C@H](Cc2ccccc2)N(C)C(=O)CNC(=O)CNC(=O)[C@H]2CCCN2C(=O)[C@H](CC(=O)O)NC(=O)[C@H](CCCCNC(=O)N2CCN(CC(=O)O)CC2)NC(=O)CNC(=O)[C@H](Cc2c[nH]c3ccccc23)NC1=O [Example C57, Gly-Gly-NMePhe-F(4amPEG2NHCOPy3(4(NMe3)))-Aoc-Trp-Gly-K(COpipzaa)-Asp-D-Pro] (cyclo([Aoc(2)]WGK([CO-Piperazinyl(4-CH2COOH)])D[dP]GG[NMeF][Phe(4-CH2NH2)]([AEEA-Nicotinoyl(6-NMe3+)])))
< 0.009 | < 0.011 | 0.016 | 0.061 | < 0.06 | Gly-Gly-NMePhe-F(4OEtNHDOTA-Lu)-Ahp-Trp-Gly-Tyr-Asp-D-Pro (cyclo(GG[NMeF][F(4OEtNHDOTA-Lu)][Ahp(2)]WGYD[dP]); also: Lu complex of DOTA) [Example C23]
< 0.007 | < 0.023 | 0.009 | 0.037 |  | CCCOCC[C@@H]1NC(=O)[C@H](Cc2ccc(CNC(=O)COCCOCCNC(=O)c3ccc(F)nc3)cc2)NC(=O)[C@H](Cc2ccccc2)N(C)C(=O)CNC(=O)CNC(=O)[C@H]2CCCN2C(=O)[C@H](CC(=O)O)NC(=O)[C@H](CCCCNC(=O)N2CCN(CC(=O)O)CC2)NC(=O)CNC(=O)[C@H](Cc2c[nH]c3ccccc23)NC1=O [Example C56, Gly-Gly-NMePhe-F(4amPEG2NHCOPy3(4F))-hS(Pr)-Trp-Gly-K(Copipzaa)-Asp-D-Pro] (cyclo(D[dP]GG[NMeF][Phe(4-CH2NH2)]([AEEA-Nicotinoyl(6-F)])[hSer](Propyl)WGK([CO-Piperazinyl(4-CH2COOH)])))

Molecule | Kd (human FAP [1]) [nM] | Kd (mouse FAP [2]) [nM] | IC50 (human FAP [3]) [nM] | IC50 (mouse FAP [4]) [nM] | Kd (mouse FAP [2]; values marked ** : including further experimental repetition) [nM]
CCCCCC[C@@H]1NC(=O)[C@H](Cc2ccc(CNC(=O)COCCOCCN)cc2)NC(=O)[C@H](Cc2ccccc2)N(C)C(=O)CNC(=O)CNC(=O)[C@H]2CCCN2C(=O)[C@H](CC(=O)O)NC(=O)[C@H](CCCCNC(=O)N2CCN(CC(=O)O)CC2)NC(=O)CNC(=O)[C@H](Cc2c[nH]c3ccccc23)NC1=O [Example A1, 2-((9S,12S,15S,18S,24S,27S,32aR)-18-((1H-indol-3-yl)methyl)-12-(4-((2-(2-(2-aminoethoxy)ethoxy)acetamido)methyl)benzyl)-9-benzyl-24-(4-(4-(carboxymethyl)piperazine-1-carboxamido)butyl)-15-hexyl-8-methyl-1,4,7,10,13,16,19,22,25,28-decaoxodotriacontahydropyrrolo[1,2-a][1,4,7,10,13,16,19,22,25,28]decaazacyclotriacontin-27-yl)acetic acid TFA salt] (cyclo([Aoc(2)]WGK([CO-Piperazinyl(4-CH2COOH)])D[dP]GG[NMeF][Phe(4-CH2NH2)](AEEA))) | < 0.007 | < 0.018 | 0.009 | 0.028 | 
CCCOCC[C@@H]1NC(=O)[C@H](Cc2ccc(CNC(=O)COCCOCCN)cc2)NC(=O)[C@H](Cc2ccccc2)N(C)C(=O)CNC(=O)CNC(=O)[C@H]2CCCN2C(=O)[C@H](CC(=O)O)NC(=O)[C@H](CCCCNC(=O)N2CCN(CC(=O)O)CC2)NC(=O)CNC(=O)[C@H](Cc2c[nH]c3ccccc23)NC1=O [Example A2, 2-((9S,12S,15S,18S,24S,27S,32aR)-18-((1H-indol-3-yl)methyl)-12-(4-((2-(2-(2-aminoethoxy)ethoxy)acetamido)methyl)benzyl)-9-benzyl-24-(4-(4-(carboxymethyl)piperazine-1-carboxamido)butyl)-8-methyl-1,4,7,10,13,16,19,22,25,28-decaoxo-15-(2-propoxyethyl)dotriacontahydropyrrolo[1,2-a][1,4,7,10,13,16,19,22,25,28]decaazacyclotriacontin-27-yl)acetic acid TFA salt] (cyclo(D[dP]GG[NMeF][Phe(4-CH2NH2)](AEEA)[hSer](Propyl)WGK([CO-Piperazinyl(4-CH2COOH)]))) | < 0.011 | < 0.023 | 0.012 | 0.047 | 
